# Like-named read-outs stand apart in the source and are kept apart here. Residues, ends and D or L forms follow the SMILES beside them.
# Legend:
# NAALADase [1] = target: T1, NAALADase (UniProt P70627); experiment: In vitro inhibition of NAALADase activity; type: biochemical; conditions: for Ki: [3H]Glu liberated from [3H]NAAG, synaptosomal protein, 15 minutes at 37° C.; for NAALADase inhibiting activity (comparison in words): compared with 2-(phosphonomethyl)pentanedioic acid
# T1 construct: Ki; other: compared with 2-(phosphonomethyl)pentanedioic acid
# Method: Various compounds of formula I were tested for in vitro inhibition of NAALADase activity.
# Substrate and product were resolved by anion-exchange liquid chromatography. […] Quisqualate (100 μM) was included in parallel assay tubes to confirm the specificity of the measurements.
# MPTP lesioned mice = experiment: In vivo assay on Parkinson's Disease (MPTP lesioned mice, TH immunostaining); design: species or system CD1 white mice
# Method: MPTP lesioning of dopaminergic neurons in mice was used as an animal model of Parkinson's Disease, as described by Steiner, Proc. Natl. Acad. Sci., Vol. 94, pp. 2019-2024 (March 1997). In brief, four week old male CD1 white mice were dosed IP with 30 mg/kg of MPTP for 5 days. […] At 18 days following MPTP treatment, the mice were sacrificed and their brains were removed and sectioned. Immunostaining was performed on saggital and coronal brain sections using anti-tyrosine hydroxylase (TH) antibodies to quantitate survival and recovery of dopaminergic neurons.
# cortical cell cultures [2] = experiment: In vitro toxicity of NAAG; type: cell-based, rats; conditions: 20 minutes
# Method: See TABLE VII for the Dissociated Culture Protocol as used herein. […] Experiments are performed after 21 days in cultures.
# At the end of exposure, the cells are washed once with HEPES buffered saline solution and then replaced with serum free modified Earle's basal medium. The cultures are then returned to the CO2 incubator for 24 hour recovery.
# This control measurement is subtracted from each experimental point.
# NAALADase [3] = conditions: NAAG as substrate of NAALADase; cited from earlier work
# [4] = test system: spinal cord organotypic cultures; experiment: Spinal cord culture model of ALS (THA toxicity, ChAT activity); type: cell-based, rats; conditions: Table XII; THA without inhibitor
# Method: Organotypic cultures were prepared from lumbar spinal cord of 8 day old rats, as described by Rothstein et al., J. Neurochem., Vol. 65, No. 2 (1995), and Rothstein et al., Proc. Natl. Acad. Sci. USA, Vol. 90, pp. 6591-6595 (July 1993). In brief, lumbar spinal cords were removed and sliced into 300 […] sections, and five slices were placed on Millipore CM semipermeable 30-mm-diameter membrane inserts. The inserts were placed on 1 ml of culture medium in 35-mm-diameter culture wells. Culture medium consisted of 50% minimal essential medium and phosphate-free HEPES (25 mM), 25% heat-inactivated horse serum, and 25% Hanks' balanced salt solution (GIBCO) supplemented with D-glucose (25.6 mg/ml) and glutamine (2 mM), at a final pH of 7.2. Antibiotic and antifungal agents were not used. Cultures were incubated at 37° C. in 5% CO2 containing humidified environment (Forma Scientific). Culture medium, along with any added pharmacological agents, was changed twice weekly.
# Drugs were incubated for an additional 13 to 20 days with the 100 μM THA. At the end of this period, cultures were collected assayed for ChAT activity as described below.
# To determine choline acetyltransferase (ChAT) activity, the spinal cord tissues in each dish (five slices) were pooled and frozen (−75° C.) until assay. ChAT activity was measured radiometrically by described methods using [^3H] acetyl-CoA (Amersham; Fonnum, 1975). Protein content of tissue homogenate was determined by a Coomassi Protein Assay kit (Pierce, Rockford, Ill.).
# cortical cell cultures [5] = experiment: In vitro assay of NAALADase inhibitors on ischemia (potassium cyanide and 2-deoxyglucose, LDH release); type: cell-based, rats; conditions: Rattus norvegicus, 1 h, read-out: EC50 (concentration required to cause a 50% reduction in glutamate toxicity following an ischemic insult)
# [6] = treated during ischemic insult and for one hour thereafter
SMILES,Ki (NAALADase [1]) [µM],EC50 (cortical cell cultures [5]; [6]) [µM],further results
CP(=O)(O)CC(CCC(=O)O)C(=O)O (centres unmarked),1.1,–,–
O=C(O)CC(CP(=O)(O)O)C(=O)O (centres unmarked) [2-(phosphonomethyl)succinic acid],0.7 ± 0.0673,–,NAALADase inhibiting activity (comparison in words) (NAALADase [1]): much lower NAALADase inhibiting activity
"CN1CC=C(c2ccccc2)CC1 [MPTP, reference compound]",–,–,"loss of functional dopaminergic terminals as compared to non-lesioned mice (MPTP lesioned mice; MPTP and vehicle): approximately 68%; Percent Strial TH Innervation Density (mean ± SEM) (MPTP lesioned mice; MPTP/vehicle, MPTP 30 mg/kg IP for 5 days): 7.82 ± 0.68%"
"CC(=O)N[C@@H](CC(=O)O)C(=O)N[C@@H](CCC(=O)O)C(=O)O [NAAG, N-acetyl-aspartyl-glutamate] (Ac-Asp-Glu-OH)",–,–,% Toxicity (cortical cell cultures [2]; NAAG 3 μM): 3.51 (n = 1) %; % Toxicity (cortical cell cultures [2]; NAAG 10 μM): 4.30 ± 3.12 (n = 3) %; % Toxicity (cortical cell cultures [2]; NAAG 30 μM): 11.40 ± 6.17 (n = 3) %; % Toxicity (cortical cell cultures [2]; NAAG 100 μM): 12.66 ± 5.50 (n = 3) %; % Toxicity (cortical cell cultures [2]; NAAG 300 μM): 13.50 ± 4.0 (n = 3) %; % Toxicity (cortical cell cultures [2]; NAAG 1 mM): 21.46 ± 4.20 (n = 3) %; % Toxicity (cortical cell cultures [2]; NAAG 3 mM): 45.11 ± 4.96 (n = 3) %; Km (NAALADase [3]): 0.54 µM
"N[C@H](C(=O)O)[C@H](O)C(=O)O [THA, threohydroxyaspartate, reference compound]",–,–,ChAT Activity (% of Control) [4]: 0 % of Control
O=C(O)CCC(CP(=O)(O)O)C(=O)O (centres unmarked) [drawing 39],–,–,EC50 (cortical cell cultures [5]): 0.00067 µM
O=C(O)C(CCc1ccccc1)CP(=O)(O)O (centres unmarked) [drawing 40],–,0.373,–
O=C(O)CCC(CP(=O)(O)Cc1cccc(C(F)(F)F)c1)C(=O)O (centres unmarked) [drawing 41],–,0.112,–
O=C(O)CCC(CP(=O)(O)Cc1ccccc1)C(=O)O (centres unmarked) [drawing 42],–,0.132,–
O=C(O)CCC(CP(=O)(O)c1ccccc1)C(=O)O (centres unmarked) [drawing 43],–,0.1,–
O=C(O)CCC(CP(=O)(O)C(O)c1ccccc1)C(=O)O (centres unmarked) [drawing 44],–,0.767,–
CCCCP(=O)(O)CC(CCC(=O)O)C(=O)O (centres unmarked) [drawing 45],–,0.794,–
Cc1ccc(CP(=O)(O)CC(CCC(=O)O)C(=O)O)cc1 (centres unmarked) [drawing 46],–,0.037,–
O=C(O)CCC(CP(=O)(O)Cc1ccc(F)cc1)C(=O)O (centres unmarked) [drawing 47],–,0.079,–
O=C(O)CCC(CP(=O)(O)Cc1c(F)c(F)c(F)c(F)c1F)C(=O)O (centres unmarked) [drawing 48],–,0.002,–
O=C(O)CCC(CP(=O)(O)CCc1ccccc1)C(=O)O (centres unmarked) [drawing 49],–,0.834,–
O=C(O)CCC(CP(=O)(O)CCCc1ccccc1)C(=O)O (centres unmarked) [drawing 50],–,4.32,–
COc1ccc(CP(=O)(O)CC(CCC(=O)O)C(=O)O)cc1 (centres unmarked) [drawing 51],–,1.67,–

# Now from value to molecule, other results behind:
Ki (NAALADase [1]) [µM],SMILES,EC50 (cortical cell cultures [5]; [6]) [µM],further results
0.18,Cc1cccc(P(=O)(O)CC(CCC(=O)O)C(=O)O)c1 (centres unmarked),–,–
0.532,O=C(O)CCC(CP(=O)(O)c1ccc(F)cc1)C(=O)O (centres unmarked),–,–
0.145,O=C(O)CCC(CP(=O)(O)Cc1ccccc1F)C(=O)O (centres unmarked),–,–
0.204,Cc1ccc(P(=O)(O)CC(CCC(=O)O)C(=O)O)cc1 (centres unmarked),–,–
0.185,O=C(O)CCCC(CP(=O)(O)O)C(=O)O (centres unmarked),–,–
0.177,O=C(O)CCC(CP(=O)(O)Cc1ccc(OCc2ccccc2)cc1)C(=O)O (centres unmarked),–,–
0.092,O=C(O)CCC(CP(=O)(O)Cc1ccccc1C(F)(F)F)C(=O)O (centres unmarked),–,–
0.117,O=C(O)CCC(CP(=O)(O)Cc1ccc(O)cc1)C(=O)O (centres unmarked),–,–
0.00189 ± 0.00019,O=C(O)CCC(CP(=O)(O)CCC(=O)O)C(=O)O (centres unmarked) [2-[[(2-carboxyethyl)hydroxyphosphinyl]methyl]pentanedioic acid],–,NAALADase inhibiting activity (comparison in words) (NAALADase [1]): lower NAALADase inhibiting activity
0.0341,O=C(O)CCC(CP(=O)(O)Cc1ccccc1)C(=O)O (centres unmarked) [drawing 18],–,–
0.0358,O=C(O)CCC(CP(=O)(O)c1ccccc1)C(=O)O (centres unmarked) [drawing 19],–,–
0.113,CCCCP(=O)(O)CC(CCC(=O)O)C(=O)O (centres unmarked) [drawing 21],–,–
0.148,O=C(O)CCC(CP(=O)(O)CCc1ccccc1)C(=O)O (centres unmarked) [drawing 23],–,–
0.232,O=C(O)CCC(CP(=O)(O)CCCc1ccccc1)C(=O)O (centres unmarked) [drawing 24],–,–
0.068,Cc1ccc(CP(=O)(O)CC(CCC(=O)O)C(=O)O)cc1 (centres unmarked) [drawing 27],–,–
0.07,O=C(O)CCC(CP(=O)(O)Cc1ccc(F)cc1)C(=O)O (centres unmarked) [drawing 28],–,–
0.0227,O=C(O)CCC(CP(=O)(O)Cc1c(F)c(F)c(F)c(F)c1F)C(=O)O (centres unmarked) [drawing 31],–,–
0.199,O=C(O)C(CCc1ccccc1)CP(=O)(O)O (centres unmarked) [drawing 33],–,–
0.0225,O=C(O)CCC(CP(=O)(O)Cc1cccc(C(F)(F)F)c1)C(=O)O (centres unmarked) [drawing 36],–,–
